The values that follow come from US20230174548A1, “SYMBIOTIC PRODRUGS FOR THE TREATMENT OF CANCER AND OTHER DISEASES” (BOARD OF REGENTS OF THE UNIVERSITY OF NEBRASKA, priority 2020, published 2023).

For data set [1] the following is noted: Phase II and III clinical trials; cited from earlier work.
The nature of data set [2]: cysteine binding assay using Ellman's reagent. It counts as physicochemical. Particulars: 19 vs prodrug under similar conditions. An excerpt: Without wishing to be bound by theory, it is believed that the α-methylene-γ-butyrolactone moiety on compound 19 is reactive toward biological nucleophiles such as glutathione and cysteine. To determine if secondary amine prodrug of compound 19 (Compound 19-AP1) results in improved stability, the reactivity of analog compound 19 and the prodrug compound 19-AP1 was compared in a cysteine binding assay using Ellman's reagent (FIG. 1B).
In general terms: In Ellman's method for cholinesterases, released thiocholine reacts with DTNB.

Data set [3] has as its system A2780 ovarian cancer line. In words: 72 h growth inhibition assay. It counts as cell-based. The note with it: Homo sapiens, A2780, 72 h. How it is done:
(§1) The cancer cell growth-inhibitory potential of amine-prodrugs (compounds 19-AP1 and 19-AP2) was evaluated. Compounds 19, 19-AP1 and 19-AP2 were screened in ovarian cancer lines (A2780, and OVSAHO) and immortalized fallopian tube epithelial cells (FT282E1) in a 72 h growth inhibition assay.

In data set [4] the test system is FT282E1 immortalized fallopian tube epithelial cells. In words: 72 h growth inhibition assay. Particulars: Epithelial cell; FT282E1, 72 h. It counts as cell-based. How it is done:
as §1

The test system of data set [5] is OVSAHO ovarian cancer line. In words: 72 h growth inhibition assay. In kind it is cell-based. The note with it: for IC50: Homo sapiens, 72 h. The procedure:
as §1

For data set [6], the system named is FTE282E1, OVSAHO, HPNE, MiaPaCa2 and S2013 cell lines. In words: growth inhibition assays in a panel of five cell lines. Particulars: for potency rank among inhibitors treated as single agents: irrespective of the cell line.
Data set [7] in a line: 19F NMR kinetics of release of compound 19 from prodrug. In kind it is physicochemical. Particulars: release of 4-trifluoromethylpiperidine. An excerpt:
Next, to assess the kinetics of the release of the active compound 19 from the prodrug compound 19-AP1, the release of 4trifluoropiperidine from the prodrug compound 19-AP1 was monitored using ^19F-NMR spectroscopy following a reported method. (Woods, Mo, Bieberich, Alavanja, & Colby, 2011). […] This observation is consistent with previously reported studies with a prodrug of parthenolide.

The next data set has as its target T1, IKKβ (Homo sapiens, UniProt O14920).
T1 construct: endogenous in cells; host or cells: A2780
In words: target engagement in A2780 cells (click chemistry pull-down, Western blot). In kind it is cell-based. The note with it: 48 h. How it is done:
(§2) Briefly, the cells were incubated with 10 μM of compound 4 for […]. In cells, compound 4 is converted to compound 3 with an active methylene group which reacts with surface-exposed cysteine residues on proteins. The lysate was treated with click reagents (TCEP, TBTA and CuSO4) and azido-biotin. Biotin-tagged-3-bound proteins were subjected to monoavidin column. Biotin-tagged proteins were captured, the column was washed to removed untagged proteins and the biotin-tagged-3-bound proteins were eluted with regeneration buffer (6M urea/PBS). The eluted lysates were subjected to Western blot analyses and probed for proteins (IKKβ, RELA, IκBα and IKKγ) in the IKK complex.
(§3) To determine target engagement in cells, cancer cells (A2780) were treated with the compound 4, which is an alkyne-tagged analog of prodrug compound 19-AP1 for 48 h (FIG. 2B). Cells were then harvested, washed and pelleted. Unbound compound 4 was removed by extensively washing the cell pellet. The cell pellets were lysed, and 2 mg/mL of lysates were subjected to click chemistry with TAMRA-Biotin-Azide trifunctional probe (10 mM stock, 20 μL, click chemistry tools), and other click reagents (TCEP, 100 mM stock, 20 μL; TBTA 13.5 mM stock, 20 μL and CuSO4 100 mM stock, 10 μL) to make total volume of 1 mL. The reaction was incubated for 3 h at RT. The lysates were incubated with monomeric avidin beads for additional 1 h. […]
A general note: Immunoblotting shows a protein as a band on a membrane.

The next data set addresses T2, RELA (Homo sapiens, UniProt Q04206).
T2 construct: endogenous in cells; host or cells: A2780
The data set is described as above. It counts as cell-based. The note with it: 48 h. The procedure: as §2, §3

Another data set has as its target CDK4 (Homo sapiens, UniProt P11802). Briefly: cell-free CDK inhibitor assay. In kind it is biochemical. Particulars: for fold less potent than palbociclib: CDK4; for IC50: CDK4, cell-free.
A further data set addresses CDK6 (Homo sapiens, UniProt Q00534). In words: cell-free CDK inhibitor assay. In kind it is biochemical. Particulars: for fold less potent than palbociclib: CDK6; for IC50: CDK6, cell-free.
The subject of data set [8] is FT282E1 immortalized fallopian tube epithelial cell line. In words: growth inhibition, synergy studies. In kind it is cell-based. The note with it: for IC50: Epithelial cell, FT282E1, read-out: IC50 (Mean ± SD).
Data set [9] concerns FT282C11 immortalized fallopian tube epithelial cell line. In words: growth inhibition, synergy studies. It counts as cell-based. Particulars: read-out: IC50 (Mean ± SD).
The test system of data set [10] is CaOV3 ovarian cancer cell line. In words: growth inhibition, synergy studies. It counts as cell-based. The note with it: Homo sapiens, Caov-3, read-out: IC50 (Mean ± SD).
In data set [11] the test system is OVCAR5 ovarian cancer cell line. In words: growth inhibition, synergy studies. In kind it is cell-based. Particulars: Homo sapiens, OVCAR-5, read-out: IC50 (Mean ± SD).
Data set [12] deals with OVCAR8 ovarian cancer cell line. Briefly: growth inhibition, synergy studies. The note with it: Homo sapiens, OVCAR-8, read-out: IC50 (Mean ± SD). It counts as cell-based.
The subject of data set [13] is A2780 ovarian cancer cell line. In words: growth inhibition, synergy studies. In kind it is cell-based. Particulars: Homo sapiens, read-out: IC50 (Mean ± SD).
Data set [14] concerns Kuramochi ovarian cancer cell line. In words: growth inhibition, synergy studies. It counts as cell-based. The note with it: read-out: IC50 (Mean ± SD).
Data set [15] concerns OVCAR4 ovarian cancer cell line. Briefly: growth inhibition, synergy studies. The note with it: Homo sapiens, OVCAR-4, read-out: IC50 (Mean ± SD). In kind it is cell-based.
Data set [16] relates to OVSAHO ovarian cancer cell line. Briefly: growth inhibition, synergy studies. It counts as cell-based. The note with it: for IC50: Homo sapiens, OVSAHO, read-out: IC50 (Mean ± SD).
Data set [17] concerns SKOV3 ovarian cancer cell line. Briefly: growth inhibition, synergy studies. It counts as cell-based. The note with it: for IC50: Homo sapiens, SK-OV-3, SKOV3, read-out: IC50 (Mean ± SD).
For data set [18], the system named is SNU119 ovarian cancer cell line. In words: growth inhibition, synergy studies. In kind it is cell-based. Particulars: read-out: IC50 (Mean ± SD).
Data set [19] relates to 9 ovarian cancer and 2 immortalized fallopian tube epithelial cell lines. Briefly: growth inhibition, expanded panel, average over cell lines. In kind it is cell-based. The note with it: average over 11 cell lines. An excerpt: The ^AveCI for compound 5 in SKOV3 cells was 0.2 indicating strong synergism.

Sequence of CDK6 (Q00534 whole entry): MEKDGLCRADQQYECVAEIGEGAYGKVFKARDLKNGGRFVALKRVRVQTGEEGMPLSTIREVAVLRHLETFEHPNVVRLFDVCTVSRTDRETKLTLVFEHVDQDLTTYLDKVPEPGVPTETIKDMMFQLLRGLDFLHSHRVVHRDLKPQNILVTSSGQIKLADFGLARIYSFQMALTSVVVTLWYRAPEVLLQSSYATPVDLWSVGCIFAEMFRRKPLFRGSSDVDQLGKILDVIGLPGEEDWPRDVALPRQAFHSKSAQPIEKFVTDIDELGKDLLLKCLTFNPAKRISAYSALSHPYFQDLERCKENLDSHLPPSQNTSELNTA
Sequence of CDK6 (P30281 whole entry partner): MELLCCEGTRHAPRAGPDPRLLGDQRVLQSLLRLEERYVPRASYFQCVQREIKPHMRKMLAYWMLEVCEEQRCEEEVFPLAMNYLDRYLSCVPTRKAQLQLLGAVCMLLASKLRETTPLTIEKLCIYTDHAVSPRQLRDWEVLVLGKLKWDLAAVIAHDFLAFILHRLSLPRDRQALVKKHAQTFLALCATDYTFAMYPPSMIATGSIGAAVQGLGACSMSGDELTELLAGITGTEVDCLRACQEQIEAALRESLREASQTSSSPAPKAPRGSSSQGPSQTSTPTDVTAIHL
Sequence of CDK4 (P11802 whole entry): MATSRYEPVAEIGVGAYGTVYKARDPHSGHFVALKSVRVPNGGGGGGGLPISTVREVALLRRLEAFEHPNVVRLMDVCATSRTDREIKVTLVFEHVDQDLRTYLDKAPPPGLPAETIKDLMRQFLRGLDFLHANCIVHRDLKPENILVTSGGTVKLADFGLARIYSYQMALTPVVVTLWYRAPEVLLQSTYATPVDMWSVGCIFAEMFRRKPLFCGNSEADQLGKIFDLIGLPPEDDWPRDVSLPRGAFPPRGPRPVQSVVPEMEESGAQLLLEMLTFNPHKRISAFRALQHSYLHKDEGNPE
Sequence of CDK4 (P24385 whole entry partner): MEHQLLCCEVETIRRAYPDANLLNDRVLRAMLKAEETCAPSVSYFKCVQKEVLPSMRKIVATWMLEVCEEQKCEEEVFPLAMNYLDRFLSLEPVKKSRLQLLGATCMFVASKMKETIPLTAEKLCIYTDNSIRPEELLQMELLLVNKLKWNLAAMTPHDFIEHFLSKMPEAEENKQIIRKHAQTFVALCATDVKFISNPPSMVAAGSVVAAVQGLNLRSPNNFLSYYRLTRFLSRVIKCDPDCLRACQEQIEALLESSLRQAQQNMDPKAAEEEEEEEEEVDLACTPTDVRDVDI
T1 sequence (O14920 whole entry): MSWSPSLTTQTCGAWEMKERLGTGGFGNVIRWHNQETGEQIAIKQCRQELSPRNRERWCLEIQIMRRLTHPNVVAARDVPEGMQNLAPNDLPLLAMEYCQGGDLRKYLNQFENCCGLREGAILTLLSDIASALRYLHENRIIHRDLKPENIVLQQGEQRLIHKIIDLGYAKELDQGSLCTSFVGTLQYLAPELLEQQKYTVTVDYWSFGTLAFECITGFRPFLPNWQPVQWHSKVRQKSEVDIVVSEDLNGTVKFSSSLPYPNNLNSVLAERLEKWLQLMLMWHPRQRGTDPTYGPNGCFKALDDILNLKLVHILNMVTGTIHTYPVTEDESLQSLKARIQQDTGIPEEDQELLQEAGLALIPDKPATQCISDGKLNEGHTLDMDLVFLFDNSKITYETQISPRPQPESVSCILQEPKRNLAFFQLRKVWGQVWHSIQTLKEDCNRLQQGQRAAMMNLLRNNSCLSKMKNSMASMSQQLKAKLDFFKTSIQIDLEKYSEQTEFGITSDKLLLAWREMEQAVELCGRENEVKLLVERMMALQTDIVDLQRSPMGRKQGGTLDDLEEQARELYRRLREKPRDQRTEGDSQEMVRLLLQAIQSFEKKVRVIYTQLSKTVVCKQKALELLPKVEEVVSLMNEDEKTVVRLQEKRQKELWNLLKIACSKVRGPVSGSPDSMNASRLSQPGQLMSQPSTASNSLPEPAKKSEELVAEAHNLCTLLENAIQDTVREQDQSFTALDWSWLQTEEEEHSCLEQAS
T2 sequence (Q04206 whole entry): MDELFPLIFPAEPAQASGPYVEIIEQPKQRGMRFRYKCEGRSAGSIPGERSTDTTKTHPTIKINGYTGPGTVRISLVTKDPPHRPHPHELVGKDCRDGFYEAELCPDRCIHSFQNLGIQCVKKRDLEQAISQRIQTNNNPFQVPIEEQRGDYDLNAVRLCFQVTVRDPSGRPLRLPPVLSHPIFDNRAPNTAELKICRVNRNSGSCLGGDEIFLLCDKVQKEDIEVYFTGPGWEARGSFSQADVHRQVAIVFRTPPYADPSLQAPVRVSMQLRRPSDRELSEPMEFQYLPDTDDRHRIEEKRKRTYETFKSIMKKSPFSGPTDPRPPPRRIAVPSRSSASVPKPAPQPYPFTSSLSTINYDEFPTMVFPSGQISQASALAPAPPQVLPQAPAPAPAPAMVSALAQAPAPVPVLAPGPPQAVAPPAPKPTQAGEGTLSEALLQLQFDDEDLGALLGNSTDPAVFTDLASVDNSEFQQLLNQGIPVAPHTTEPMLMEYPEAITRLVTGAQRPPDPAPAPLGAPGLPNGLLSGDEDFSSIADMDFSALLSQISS

In the case of `COc1cccc2c1C(=O)c1c(O)c3c(c(O)c1C2=O)C[C@@](O)(/C(CO)=N/NC(=O)CCCCCN1C(=O)C=CC1=O)C[C@@H]3O[C@H]1C[C@H](N)[C@H](O)[C@H](C)O1` [INNO-206], the “cardiotoxicity profile compared with doxorubicin” value in data set [1] is “far superior”.
Broadly, the IC50 is the concentration that inhibits the measured activity by half. For `C=C1CC2(OC1=O)C(=O)Nc1ccccc12` (stereo not drawn) [Compound 19, 4-methylene-3,4-dihydro-5H-spiro(furan-2,3′-indoline)-2′,5-dione, reference compound], in data set [2], the “reactivity towards free cysteine” value is reported as “reacted rapidly”. The IC50 in [3] is 2.15 ± 0.15 µM; in data set [4] it was 5.28 ± 0.17 µM; in data set [5], 20.4 ± 4.71 µM. Moreover, the “potency rank among inhibitors treated as single agents” value in data set [6] is listed as “AT7519>compound 19>parthenolide>palbociclib”.
Take `O=C(NC1CCN(CC2CC3(OC2=O)C(=O)Nc2ccccc23)CC1)c1n[nH]cc1NC(=O)c1c(Cl)cccc1Cl` (stereo not drawn) [Compound 7, 4-(2,6-dichlorobenzamido)-N-(1-((2′,5-dioxo-4,5-dihydro-3H-spiro[furan-2,3′-indolin]-4yl)methyl)piperidin-4-yl)-1H-pyrazole-3-carboxamide]: the “potency relative to the palbociclib based compounds (compounds 5 and 6)” value in data set [6] is reported as “more potent”.
Turning to `O=C1OC2(CC1CN1CCC(C(F)(F)F)CC1)C(=O)Nc1ccccc12` (stereo not drawn) [Compound 19-AP1, 4-((4-(trifluoromethyl)piperidin-1-yl)methyl)-3,4-dihydro-5H-spiro[furan-2,3′-indoline]-2′,5dione], the “reactivity towards free cysteine” value in data set [2] is reported as “more stable”. In addition, the “period over which the prodrug is hydrolyzed slowly to release the active compound 19” value in data set [7] is given as 72 h. The IC50 in [3] was 5.71 ± 0.24 µM; in [4], 10.2 ± 0.56 µM; in data set [5], 10.8 ± 1.28 µM. Besides, the “potency relative to parent compound 19” value in data set [5] was “more potent”.
With `C/C1=C\CCC[C@@]2(C)O[C@@H]2[C@H]2OC(=O)C(CN3CCC(NC(=O)c4n[nH]cc4NC(=O)c4c(Cl)cccc4Cl)CC3)[C@@H]2C1` (stereo partly drawn) [Compound 8, 4-(2,6-dichlorobenzamido)-N-(1-(((3R,3aS,9aR,10aS,10bS,E)-6,9a-dimethyl-2-oxo2,3,3a,4,5,8,9,9a,10a,10b-decahydrooxireno[2′,3′:9,10]cyclodeca[1,2-b]furan-3yl)methyl)piperidin-4-yl)-1H-pyrazole-3-carboxamide], the “potency relative to the palbociclib based compounds (compounds 5 and 6)” value in data set [6] is given as “more potent”.
With `C#CCN1C(=O)C2(CC(CN3CCC(C(F)(F)F)CC3)C(=O)O2)c2ccccc21` (stereo not drawn) [Compound 4, 1′-(prop-2-yn-1-yl)-4-((4-(trifluoromethyl)piperidin-1-yl)methyl)-3,4-dihydro-5H-spiro[furan2,3′-indoline]-2′,5-dione], on IKKβ, the “covalent binding of IKKβ protein” value is given as “observed”. In addition, on RELA, the “covalent binding of RELA protein” value is reported as “observed”.
For the compound `O=C(NC1CCNCC1)c1[nH]ncc1NC(=O)c1c(Cl)cccc1Cl` [AT7519, reference compound], the “potency rank among inhibitors treated as single agents” value in [6] is on record as “AT7519>compound 19>parthenolide>palbociclib”.
On to `CC(=O)c1c(C)c2cnc(Nc3ccc(N4CCN(CC5CC6(OC5=O)C(=O)Nc5ccccc56)CC4)cn3)nc2n(C2CCCC2)c1=O` (stereo not drawn) [Compound 5, 4-((4-(6-((6-Acetyl-8-cyclopentyl-5-methyl-7-oxo-7,8-dihydropyrido[2,3-d]pyrimidin-2yl)amino)pyridin-3-yl)piperazin-1-yl)methyl)-3,4-dihydro-5H-spiro[furan-2,3′-indoline]-2′,5dione], for which the “fold less potent than palbociclib” value is about 100 fold at CDK4 and about 20 fold at CDK6. The IC50 was determined as 0.046 ± 0.014 µM against CDK4; 0.009 ± 0.001 µM against CDK6; 14.6 ± 1.2 µM in data set [8]; 21.8 ± 1.5 µM in [9]; 5.5 ± 0.5 µM in data set [10]; 9.3 ± 0.9 µM in data set [11]. The IC50 is 9.1 ± 0.9 µM in data set [12]; 6.6 ± 1.3 µM in [13]; over 40 µM in [14]; 17.9 ± 1.4 µM in data set [15]; 11.4 ± 0.9 µM in data set [16]; 15.4 ± 1.5 µM in [17]. For the same compound, the IC50 in [18] was 8.8 ± 1.6 µM. Also, the “average combination index (AveCI)” value in data set [8] (FT282E1 cells) is listed as over 1.0; in [16] (OVSAHO cells, effective dose (ED) 50, 75 and 90) it was 0.9; in data set [17] (SKOV3 cells), 0.2. Besides, the “fold less potent than the corresponding 1:1 mixture, on an average” value in [19] is “equipotent”. The “fold more potent than the parthenolide-palbociclib compound 6” value in data set [19] was about 3 fold.
Regarding `CN(C)CC1CC2(OC1=O)C(=O)Nc1ccccc12` (stereo not drawn) [Compound 19-AP2, 4-((dimethylamino)methyl)-3,4-dihydro-5H-spiro[furan-2,3′-indoline]-2′,5-dione], the IC50 in data set [3] came out at 5.38 ± 0.33 µM; in data set [4] it was 12 ± 1.26 µM; in data set [5], 9.81 ± 1.07 µM. Besides, the “potency relative to parent compound 19” value in data set [5] was “more potent”.
As to `CC(=O)c1c(C)c2cnc(Nc3ccc(N4CCN(CC5C(=O)O[C@@H]6[C@H]7O[C@]7(C)CCC/C=C(\C)C[C@@H]56)CC4)cn3)nc2n(C2CCCC2)c1=O` (stereo partly drawn) [Compound 6, 6-Acetyl-8-cyclopentyl-2-((5-(4-(((3R,3aS,9aR,10aS,10bS,E)-6,9a-dimethyl-2-oxo2,3,3a,4,5,8,9,9a,10a,10b-decahydrooxireno[2′,3′:9,10]cyclodeca[1,2-b]furan-3yl)methyl)piperazin-1-yl)pyridin-2-yl)amino)-5-methylpyrido[2,3-d]pyrimidin-7(8H)-one], the “fold less potent than palbociclib” value is reported as about 200 fold at CDK4 and about 50 fold on CDK6. The IC50 against CDK4 was 0.085 ± 0.018 µM; against CDK6 it was 0.018 ± 0.001 µM; in data set [8] it was over 40 µM; in data set [9] it was 25.6 ± 4.8 µM; in data set [10] it was 25 ± 3.2 µM; in data set [11], 32.6 ± 4.4 µM. Further, the IC50 in data set [12] was 38.4 ± 4.5 µM; in data set [13] it was 31 ± 7 µM; in data set [14], over 40 µM; in data set [15] it was over 40 µM; in [16], 31.1 ± 2.3 µM; in data set [17] it was over 40 µM. In addition, the IC50 in [18] is 34.9 ± 6.3 µM. Besides, the “fold less potent than the corresponding 1:1 mixture, on an average” value in data set [19] is given as about 7 fold.
